Some test systems named below: MDA-N; MALME-3M melanoma; HS 578T breast; SK-MEL-28 melanoma; CCRF-CEM leukemia; DU-145 prostate; OVCAR-3 ovarian; PC-3 prostate; EKVX NSCLC; NCI-H522 lung.
Common to all, as to test: inhibition of tumour cell growth, NCI panel, 48 h

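Values below derive from 48-hour exposures of cells grown in 96-well plates, with endpoints linearly interpolated between the two concentrations bracketing the appropriate inhibition level. The concentration for full growth arrest is given as TGI.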

With `CC1=NNC(=O)C1C1C(=O)NN=C(c2c[nH]c3ccccc23)C1Br` (configuration not stated), the TGI was over 100 µM with MDA-N; over 100 µM with MALME-3M melanoma; over 100 µM with HS 578T breast; over 100 µM in the assay on SK-MEL-28 melanoma; 65.5 µM in the assay on CCRF-CEM leukemia; over 100 µM with DU-145 prostate. Also, the TGI is over 100 µM with OVCAR-3 ovarian, over 100 µM in the assay with PC-3 prostate, over 100 µM in the assay with EKVX NSCLC and 92.4 µM in the assay with NCI-H522 lung.

For the compound `COc1ccc(N2C(=O)C3c4[nH]c5ccc(OCc6ccccc6)cc5c4C4CCC(c5ccccc5)CC4C3C2=O)cc1` (configuration not stated), the TGI with MDA-N was over 100 µM; with MALME-3M melanoma, 45.6 µM; in the assay on HS 578T breast, 25.8 µM; with CCRF-CEM leukemia it was 26.8 µM; with DU-145 prostate, over 100 µM; in the assay on OVCAR-3 ovarian it was over 89 µM. Moreover, the TGI in the assay with PC-3 prostate was 96.5 µM; in the assay with EKVX NSCLC it was 38.2 µM; in the assay with NCI-H522 lung it was over 44.6 µM.

In the case of `Cc1ccc2c(c1)-c1nc(N)c(C#N)c(-c3ccc(Cl)cc3)c1CCS2(=O)=O`, the TGI is over 100 µM in the assay with MDA-N; over 100 µM in the assay on MALME-3M melanoma; over 100 µM in the assay on HS 578T breast; over 100 µM in the assay on SK-MEL-28 melanoma; 72 µM with CCRF-CEM leukemia; over 100 µM with DU-145 prostate. The TGI in the assay with PC-3 prostate and in the assay on NCI-H522 lung was over 100 µM throughout.

Turning to `OC1[C@@H]2[C@@H](O)CCCN2C[C@@H](O)[C@H]1O` (some centres not stated), the TGI in the assay with MDA-N, in the assay with MALME-3M melanoma, with HS 578T breast, in the assay with SK-MEL-28 melanoma, with CCRF-CEM leukemia and in the assay with DU-145 prostate was over 100 µM in each case. Moreover, the TGI with OVCAR-3 ovarian, in the assay with PC-3 prostate, in the assay on EKVX NSCLC and in the assay with NCI-H522 lung was over 100 µM in each case.

As to `Cc1ccc2nc(SCC(=O)N=Nc3c(O)[nH]c4ccccc34)n(-c3ccccc3)c(=O)c2c1`, the TGI is 37.6 µM in the assay on MDA-N; 34.7 µM in the assay with MALME-3M melanoma; 46.2 µM with HS 578T breast; 31.2 µM in the assay on SK-MEL-28 melanoma; 34.5 µM with CCRF-CEM leukemia; 26.2 µM with DU-145 prostate. The figures for the TGI in the assay with OVCAR-3 ovarian, in the assay with PC-3 prostate and in the assay on EKVX NSCLC were 41.9 µM, 36.1 µM and 29.2 µM, respectively.

In the case of `CC12CCC(CC(=O)/C1=C(/Br)I)C2(C)C` (configuration not stated), the TGI in the assay with MDA-N worked out at 26.7 µM; in the assay with MALME-3M melanoma, 25.8 µM; with HS 578T breast, 44 µM; in the assay on SK-MEL-28 melanoma, 30.4 µM; with CCRF-CEM leukemia, 30.5 µM; in the assay with DU-145 prostate it was 34.8 µM. Further, the TGI in the assay on OVCAR-3 ovarian amounted to 26.9 µM; in the assay with PC-3 prostate, 23.6 µM; with EKVX NSCLC it was 36.6 µM.

Turning to `O=C(Nc1ccccc1F)c1cc2ccc(O)cc2oc1=Nc1cccc(F)c1`, the TGI in the assay on MDA-N worked out at 43.3 µM; in the assay with MALME-3M melanoma, 98.7 µM; in the assay with HS 578T breast it was 84.4 µM; with SK-MEL-28 melanoma, 38.7 µM; in the assay on CCRF-CEM leukemia, 15.3 µM; in the assay on DU-145 prostate, 40.5 µM. The TGI in the assay on OVCAR-3 ovarian is 33.1 µM; in the assay on PC-3 prostate, 48 µM; with EKVX NSCLC, 35.2 µM; in the assay with NCI-H522 lung, over 100 µM.

For `O=c1[nH]c(Nc2ccccc2)nc2c1ncn2CC(O)CSCCO` (configuration not stated), the TGI in the assay on MDA-N, with MALME-3M melanoma, in the assay with HS 578T breast, in the assay with SK-MEL-28 melanoma, with CCRF-CEM leukemia and in the assay on DU-145 prostate was over 100 µM in each case. Moreover, the TGI in the assay on OVCAR-3 ovarian, in the assay with PC-3 prostate, with EKVX NSCLC and in the assay on NCI-H522 lung was over 100 µM in each case.

On to `C[C@H](c1ccccc1)N1C(=O)[C@@H](O)[C@H]1[C@H](CO)OCc1ccccc1`, for which the TGI with MDA-N, in the assay on MALME-3M melanoma, with HS 578T breast, in the assay on SK-MEL-28 melanoma, in the assay with CCRF-CEM leukemia and in the assay with DU-145 prostate was over 100 µM in each case. Moreover, the TGI with OVCAR-3 ovarian, in the assay on PC-3 prostate and in the assay with EKVX NSCLC was over 100 µM each time.

Take `COc1cccc(N2C(=O)CSC2c2cccc(Oc3ccccc3)c2)c1` (configuration not stated): the TGI is 5.53 µM with MDA-N; 53.7 µM in the assay with MALME-3M melanoma; 41.4 µM in the assay with HS 578T breast; over 100 µM with SK-MEL-28 melanoma; over 100 µM with CCRF-CEM leukemia; over 100 µM in the assay with DU-145 prostate. In addition, the TGI in the assay on OVCAR-3 ovarian was 92.9 µM; in the assay on PC-3 prostate it was over 100 µM; with EKVX NSCLC, 61.4 µM; with NCI-H522 lung, 20.6 µM.

As to `O=[N+]([O-])c1ccccc1OCCOc1ccccc1[N+](=O)[O-]`, the TGI with MDA-N, with MALME-3M melanoma, with HS 578T breast, with SK-MEL-28 melanoma, in the assay on CCRF-CEM leukemia and with DU-145 prostate was over 100 µM in each case. In addition, the TGI in the assay with OVCAR-3 ovarian, in the assay on PC-3 prostate, in the assay on EKVX NSCLC and in the assay with NCI-H522 lung was over 100 µM in each case.

In the case of `Cc1ccc(Nc2nc3[nH]ccc3c(=O)[nH]2)cc1`, the TGI in the assay with MDA-N, in the assay with MALME-3M melanoma, with HS 578T breast, in the assay on CCRF-CEM leukemia, with DU-145 prostate and with OVCAR-3 ovarian was over 100 µM throughout. Moreover, the TGI in the assay on PC-3 prostate, with EKVX NSCLC and with NCI-H522 lung was over 100 µM each time.

As to `O=C(O)CCc1nc2c(n1-c1ccccc1)C(=O)c1ccccc1C2=O`, the TGI in the assay on MDA-N, in the assay with HS 578T breast, in the assay on SK-MEL-28 melanoma, with CCRF-CEM leukemia, in the assay with DU-145 prostate and with OVCAR-3 ovarian was over 100 µM throughout. The TGI with PC-3 prostate, in the assay with EKVX NSCLC and with NCI-H522 lung was over 100 µM each time.

Take `C#CCNC(CSSCC(N)C(=O)O)C(=O)O` (configuration not stated): the TGI in the assay with MDA-N, in the assay on MALME-3M melanoma, in the assay on HS 578T breast, with SK-MEL-28 melanoma, in the assay with CCRF-CEM leukemia and in the assay with DU-145 prostate was over 100 µM in each case. For the same compound, the TGI with OVCAR-3 ovarian, in the assay on PC-3 prostate, with EKVX NSCLC and with NCI-H522 lung was over 100 µM each time.

The record behind these values is PubChem BioAssay (NCI).
